Experimental data from patent US20170162898A1, “Quaternary Ammonium Halides With Ether Functional Groups For Use As Battery Electrolytes” (Albemarle Corporation, priority 2014, published 2017).
“And” between values parts separate entries of the source, which are not always exact repeats. Identical values can stand only once.

Experiments:
[1] = Measurement of free bromine in aqueous phase; type: physicochemical; details: stirred 24 hrs, top aqueous phase, wt %
Text: The forward operation of a bromine-containing battery generally involves the conversion of elemental bromine to ionic bromine. The quat/Br2 complex results from an equilibrium reaction in which the Br2 is released from the complex as the concentration of free Br2 in the aqueous electrolyte drops during battery operation. In its fully charged state, the electrolyte solution inevitably contains some degree of uncomplexed bromine. A measure of a quat's ability to complex elemental bromine is the amount of elemental bromine left in solution when the complexation reaction proceeds to equilibrium. Such bromine is referred to as “free bromine.” Measurement of free bromine in aqueous phase is set forth in Example 1.
Two slightly different methods were used to prepare the electrolyte compositions, A) one containing 0.7M quat and B) the other containing 0.8M quat. In composition A, 2.0 moles of bromine was added to an aqueous solution containing 0.5 moles of zinc bromide and 0.7 moles of the quat. The two-phase mixture was stirred for 24 hrs. and then the phases were allowed to settle. The top aqueous phase was sampled for free bromine measurement. In composition B, 1.44 moles of bromine was added to an aqueous solution containing 0.5 moles of zinc bromide, 0.4 moles of zinc chloride and 0.8 moles of the quat. The top aqueous phase obtained after stirring for 24 hrs. was used for free bromine measurement.
A 250-ml Erlenmeyer flask was charged with 50 ml of deionized water and weighed (A). A sample of the clear aqueous phase was passed through glass wool to remove any suspended organic phase and then added to the Erlenmeyer flask. The flask was weighed again (B) and the difference in weight (B-A) was noted as the weight of the sample. About 20 ml of 20% potassium iodide solution followed by about 5 ml of starch solution was added to the flask. The resulting dark mixture was titrated against 0.02N sodium thiosulfate solution. The end-point was the disappearance of purple color. Free bromine (wt %) was calculated in the following manner:
Wt % free Br2=Volume (ml) of sodium Thiosulfate×Normality of Sodium thisosulfate/Sample Weight.

[2] = Cloud point determination (solubility in ZnBr2 solution); details: for Solubility in ZnBr2 Cloud Point: 0.7 M quat in 2.5M Zinc Bromide water solution
Protocol: By “cloud point” is meant the cloud point of an aqueous solution containing 0.7 M complexing agent and 2.5 M zinc bromide.
A 0.7M quaternary ammonium bromide in 2.5M Zinc Bromide water solution was prepared. • 2. The solution was transferred to a jacketed flask with a stirring bar and temperature monitor. • 3. The solution was warmed to 15° C. above the expected cloud point. If necessary, any moisture or impurities were removed by filtration. • 4. The solution was stirred, with speed adjustment to about 250 rpm, while avoiding the formation of bubbles. • 5. The solution was cooled gradually (cooling rate of about 1° C./5 min). • 6. The sample was inspected carefully for signs of cloudiness, and the temperature at which cloudiness was observed was recorded to the nearest 0.1° C.

[3] = Free bromine in electrolyte with chloroquat or bromoquat (Example 8); type: physicochemical; details: 0.84 M zinc bromide, 0.8 M quat, 1.44 M bromine; stirred for 24 hrs at 35° C.
Protocol: Chloride ions are added to the electrolyte in amounts sufficient to reduce the amount of free bromine present and increase the electrolyte conductivity during charging of the cell. Chloride ions in the electrolyte may come from zinc chloride or quaternary ammonium chloride complexing agent.
Experiment 1 of Example 8: An aqueous electrolyte system was prepared having 0.84 M zinc bromide, 0.8 NI chloroquat (N-methyl, N-butyl pyrrolidinium chloride) and 1.44 M bromine. After the sample was stirred for 24 hrs at 35° C., the amount of free bromine present in the electrolyte was 0.26%.
Experiment 2 of Example 8: An aqueous electrolyte system was prepared having 0.84 M zinc bromide, 0.8 M bromoquat (N-methyl, N-butyl pyrrolidinium bromide) and 1.44 NI bromine. After the sample was stirred for 24 hrs at 35° C., the amount of free bromine present in the electrolyte was 0.25%.

[4] = 0.7 M quat (composition A: 0.5 moles zinc bromide, 2.0 moles bromine)
[5] = 0.8 M quat (composition B: 0.5 moles zinc bromide, 0.4 moles zinc chloride, 1.44 moles bromine)

SMILES | Free Br2 [1, 4] | Solubility in ZnBr2 Cloud Point [2] | further results
CC[N+](C)(C)CCOCC[N+](C)(C)CC.[Br-].[Br-] [Compound 14, Dimethylethyl Gemini Quat Bromide with Diethylether Linkage] | 0.71% and 0.7 M 0.71% | 0.7 M, 48.2 C. | 
CC[N+](C)(C)CCCC[N+](C)(C)CC.[Br-].[Br-] [Compound 15, Dimethylethyl Gemini Quat Bromide with Butyl Linkage] | 0.59% and 0.7 M 0.59% | 0.7 M, 89.2 C. | 
CCC[N+](CC)(CC)CC.[Br-] [Compound 5, triethylpropylammonium bromide] | 0.089% and 0.7 M 0.089% | 0.7 M, 41.2 C. | 
CCCC[N+]1(C)CCCC1.[Cl-] [chloroquat, N-methyl, N-butyl pyrrolidinium chloride] |  |  | amount of free bromine present in the electrolyte [3]: 0.26%
CCCC[N+]1(C)CCCC1.[Br-] [bromoquat, N-methyl, N-butyl pyrrolidinium bromide] |  |  | amount of free bromine present in the electrolyte [3]: 0.25%
CCC[N+](C)(C)CC.[Br-] [DMEP, dimethylethylpropyl ammonium bromide, reference compound] |  |  | cloud point ([2]; solution 0.7M in DMEP and 2.5M in ZnBr2): about 23.2 °C
CCC[N+]1(CC)CCCCC1 [Compound 10, EthyPropyl Piperidinium Bromide] |  | 0.7 M, 45.8 C. | Free Br2 [1, 5]: 0.026% and 0.8 M 0.026%
CC[N+]1(CC)CCCCC1.[Br-] [Compound 9, Diethyl Piperidinium Bromide] |  | 0.7 M, 11.9 C. | Free Br2 [1, 5]: 0.26% and 0.8 M 0.26%

Now from value to compound, other results behind:

Free Br2 [1, 4] | Solubility in ZnBr2 Cloud Point [2] | SMILES | further results
0.658% and 0.7 M 0.658% |  | CC[N+](CC)(CC)CCOC.[Br-] [Compound 2, (2-methoxyethyl)-triethylammonium bromide] | Free Br2 [1, 5]: 0.467% and 0.8 M 0.467%
0.7 M 0.70% |  | CC[N+](C)(CC)CCOC.[Br-] [Compound 4, diethylmethyl-(2-methoxyethyl)ammonium bromide] | 
0.7 M 0.28% | 0.7 M, 29 C. | CCCC[N+](C)(C)CCOC.[Br-] [Compound 1, Dimethylbutylether Quat Bromide] | 
